Reference: paper PMC11274643, “Design, Synthesis, Characterization, and Cytotoxicity of New Pyrazolylmethylene-2-thioxoimidazolidin-4-one Derivatives towards Androgen-Sensitive LNCaP Prostate Cancer Cells” (Biomolecules, 2024)

Tests used:
[1] = test system: Wi38 normal human lung fibroblast cell line; assay: MTT in vitro cytotoxicity assay, 24 h incubation; format: cell-based; settings: WI-38
Protocol: (§1) The antitumor properties of pyrazolylmethylene-2-thioxoimidazolidin-4-one derivatives (3a–p) against androgen-sensitive (AR^+LNCaP; ATCC CRL-1740, Accession: CVCL_0395) and androgen-insensitive (AR^-PC-3; ATCC CRL-1435, Accession: CVCL_D5ZS) human prostate cancer cell lines in addition to normal human lung fibroblast cell line (Wi38, Accession: CVCL_2759) were evaluated by MTT assay. AR^+LNCaP, AR^-PC-3, and Wi38 cell lines were purchased frozen in liquid nitrogen from Egyptian Company for Production of Vaccines, Sera and Drugs, Cairo, Egypt (VACSERA). Tumor cell lines were stored as monolayer cultures in DMEM supplemented with 10% FBS and 1% penicillin–streptomycin. MTT assay was carried out as described previously in the literature. In brief, AR^+LNCaP, AR^-PC-3, and Wi38 cells were cultured into 96-well plates containing 100 µL of culture medium per each well. […] A control containing only culture medium was also applied. The assay was performed in triplicate. The cells were incubated overnight to grow at 37 °C in 5% CO2. After removing the growth medium, 100 µL of MTT (0.4 mg/mL of PBS) were added. After 24 h of incubation, the supernatant was removed and 100 µL of DMSO (Sigma Aldrich, Germany) were then added to each sample. Absorbance at 550 nm was measured. The formula (Reading of extract/Reading of negative control) × 100 was applied to calculate the viability percentage. The IC50 value of test compounds (3a–p) was also determined using CPE measurements of normal Wi38 cells (normal human lung fibroblast cells). The MTT assay was repeated with the test compounds (3i, 3k, 3o, 3j, 3p, and 3m) using the three cell types which were stimulated by 1 nM DHT after 48 h of incubation. IC50 values were estimated using Graph Pad Prism computer software (International Scientific Community, San Diego, CA, USA) from linear regression analysis of the concentration–response curves plotted for each tested compound [36].
(§2) In vitro cytotoxicity assay was performed to elucidate the antitumor properties of the synthesized derivatives of pyrazolylmethylene-2-thioxoimidazolidin-4-one. […] The cytotoxicity assay was performed using MTT assay as described in the Materials and Methods Section 2.4.1. The test compounds were dissolved in DMSO as stock solutions (<0.5% (v/v)) and stored in the dark at −20 °C. The human prostate cancer cells and normal human lung fibroblast cells were subjected to variable doses of the compounds for 24 h.

[2] = test system: AR+LNCaP androgen-sensitive human prostate cancer cell line; assay: MTT in vitro cytotoxicity assay, 24 h incubation; format: cell-based; settings: for IC50: Homo sapiens, MTT; for Selective Index Wi38/Lncap: ratio of IC50 values
Protocol: as §1, §2

[3] = test system: AR-PC-3 androgen-insensitive human prostate cancer cell line; assay: MTT in vitro cytotoxicity assay, 24 h incubation; format: cell-based; settings: for IC50: Homo sapiens, MTT; for Selective Index Wi38/PC-3: ratio of IC50 values
Protocol: as §1, §2

[4] = test system: Wi38 normal human lung fibroblast cell line; assay: MTT cytotoxicity assay in presence of 1 nM DHT, 48 h incubation; format: cell-based; settings: WI-38, read-out: IC50 Wi38
Protocol: as §1
(§3) The assay was performed in the presence of dihydrotestosterone (1 nM DHT) for 48 h of incubation as previously described. DHT is a potent inducer of androgens that enhances prostate cancer disease progression.

[5] = test system: AR+LNCaP androgen-sensitive human prostate cancer cell line; assay: as above; format: cell-based
Protocol: as §1, §3

[6] = test system: AR-PC-3 androgen-insensitive human prostate cancer cell line; assay: as above; format: cell-based
Protocol: as §1, §3

[7] = test system: active human caspase-3 in AR+LNCaP cells; assay: Detection of active Caspase 3 in AR+LNCaP cell lysates (Invitrogen Elisa kit); format: cell-based; set-up: Caspase 3 Conc. (Average): unit not given here; settings: for Caspase 3 fld / Caspase 3: LNCaP, supplement lab report; for Caspase 3 fld: fold of control; for Caspase 3 Conc. (Average): supplement ELISA read-out, average of two wells
Protocol: Untreated AR^+LNCaP and Enzalutamide-treated AR^+LNCaP were used as negative and positive controls, respectively. AR^+LNCaP cells were cultured in 96-well plates at a cell density of 1 × 10^4 cells/well. Cells were then lysed with 50 µL lysis buffer/well supplemented with the Invitrogen Elisa kit for detection of active human caspase-3 (Invitrogen, Camarillo, CA, USA). Plates were frozen at −80 °C for 30 min and then thawed. The lysate was mixed with 2 Z-DEVD-R110 substrate and incubated at room temperature for 30 min. A fluorescence microplate reader (Tecan, Mainz-Kastel, Germany), was used to measure fluorescence via excitation at 496 nm and emission detection at 520 nm. Values were normalized with total protein content. Active caspase 3 accumulation was determined based on standard dilution series of Human Caspase-3 samples provided with the kit. […]

[8] = test system: AR+LNCaP cells; assay: Cell apoptosis assay (Annexin V-FITC, flow cytometry); format: cell-based, human; settings: IC50 concentration, 1 nM DHT, 24 h
Protocol: Cell apoptosis assay was performed to ensure the efficacy of compounds 3i and 3k against the progression of AR^+LNCaP tumor cell growth in the presence of 1 nM DHT. Untreated AR^+LNCaP and Enzalutamide-treated AR^+LNCaP were used in this assay as negative and positive controls, respectively. AR^+LNCaP cells were precultured in 25 cm^2 flasks. Briefly, 1 nM DHT was then added to the growing cells. […] AR^+LNCaP cells were harvested and fixed with 70% (v/v) ethanol in FBS (Sigma-Aldrich, Germany), then maintained at 4 °C overnight. The cells were resuspended in FBS containing 0.1% (v/v) Triton X-100, 40 µg/mL […], and 0.1 mg/mL RNase then incubated in a dark chamber at 37 °C for 30 min. A flow-cytometer (Becton Dickinson, San Jose, CA, USA) supplemented with an argon ion laser at a wavelength of 488 nm was used to analyze the AR^+LNCaP cell apoptotic stages. Based on the protocol described by Ozgur et al. (2003), analysis of the data was implemented using Multicycle Software (Phoenix Flow Systems, San Diego, CA, USA; http://www.phoenixflow.com/index.html).
The active compounds 3i and 3k were further analyzed to evaluate their antitumor properties against the growth of the AR^+LNCaP prostate cancer cell line. […] Untreated AR^+LNCaP cells and Enzalutamide reference drug were also used as negative and positive controls in this assay, respectively.

[9] = test system: AR+LNCaP cells; assay: DNA content at cell cycle stages (Propidium Iodide flow cytometry); format: cell-based, human; settings: IC50 concentration, 1 nM DHT
Protocol: The amount of DNA contents of AR^+LNCaP cells stimulated with 1 nM DHT and treated with representative test compounds 3i and 3k at the different stages of the cell cycle were quantitatively evaluated as described previously. […] The Ab139418–Propidium Iodide Flow Cytometry Kit for Cell Cycle Analysis (ab139418, Abcam, Cambridge, UK) was employed for this assay following the procedures provided by the supplier.
Firstly, the ab139418-Propidium Iodide Flow Cytometry Kit for Cell Cycle Analysis (Bio vision, Boston, MA, USA) was used to quantify DNA contents at each cell cycle stage as an indicator of the cell cycle growth arrest.

## O=C1NC(=S)NC1=Cc1cn(-c2ccccc2)nc1-c1ccc(F)cc1 [Compound 3a, 5-((3-(4-Fluorophenyl)-1-phenyl-1H-pyrazol-4-yl)methylene)-2-thioxoimidazolidin-4-one]
[1]
  IC50: 63.27 ± 0.18 µM
[2]
  IC50: 26.57 ± 0.04 µM
  Selective Index Wi38/Lncap: 2.4
[3]
  IC50: 16.8 ± 0.34 µM
  Selective Index Wi38/PC-3: 3.8
other
  melting point: 186 to 188 °C

## O=C1NC(=S)NC1=Cc1cn(-c2ccccc2)nc1-c1ccc(Cl)cc1 [Compound 3b, 5-((3-(4-Chlorophenyl)-1-phenyl-1H-pyrazol-4-yl)methylene)-2-thioxoimidazolidin-4-one]
[1]
  IC50: 24.26 ± 0.06 µM
[2]
  IC50: 20.79 ± 0.06 µM
  Selective Index Wi38/Lncap: 1.0
[3]
  IC50: 21.92 ± 0.12 µM
  Selective Index Wi38/PC-3: 0.9
other
  melting point: 183 to 184 °C

## O=C1NC(=S)NC1=Cc1cn(-c2ccccc2)nc1-c1ccc(Br)cc1 [Compound 3c, 5-((3-(4-Bromophenyl)-1-phenyl-1H-pyrazol-4-yl)methylene)-2-thioxoimidazolidin-4-one]
[1]
  IC50: 87.9 ± 2.96 µM
[2]
  IC50: 110 ± 2.06 µM
  Selective Index Wi38/Lncap: 0.8
[3]
  IC50: 20.9 ± 1.12 µM
  Selective Index Wi38/PC-3: 4.2
other
  melting point: 193 to 195 °C

## O=C1NC(=S)NC1=Cc1cn(-c2ccccc2)nc1-c1ccc(C(F)(F)F)cc1 [Compound 3d, 5-((1-Phenyl-3-(4-(trifluoromethyl)phenyl)-1H-pyrazol-4-yl)methylene)-2-thioxoimidazolidin-4-one]
[1]
  IC50: 48.19 ± 0.21 µM
[2]
  IC50: 23.5 ± 0.74 µM
  Selective Index Wi38/Lncap: 2.0
[3]
  IC50: 177.2 ± 0.61 µM
  Selective Index Wi38/PC-3: 0.3
other
  melting point: 183 to 185 °C

## O=C1NC(=S)NC1=Cc1cn(-c2ccccc2)nc1-c1ccccc1 [Compound 3e, 5-((1,3-Diphenyl-1H-pyrazol-4-yl)methylene)-2-thioxoimidazolidin-4-one]
[1]
  IC50: 63.24 ± 0.26 µM
[2]
  IC50: 33.9 ± 0.12 µM
  Selective Index Wi38/Lncap: 1.9
[3]
  IC50: 20.1 ± 0.21 µM
  Selective Index Wi38/PC-3: 3.2
other
  melting point: 168 to 179 °C

## Cc1ccc(-c2nn(-c3ccccc3)cc2C=C2NC(=S)NC2=O)cc1 [Compound 3f, 5-((1-Phenyl-3-(p-tolyl)-1H-pyrazol-4-yl)methylene)-2-thioxoimidazolidin-4-one]
[1]
  IC50: 56.56 ± 0.14 µM
[2]
  IC50: 54.19 ± 0.11 µM
  Selective Index Wi38/Lncap: 1.0
[3]
  IC50: 20.19 ± 0.04 µM
  Selective Index Wi38/PC-3: 2.8
other
  melting point: 189 to 191 °C

## Nc1ccc(-c2nn(-c3ccccc3)cc2C=C2NC(=S)NC2=O)cc1 [Compound 3g, 5-((3-(4-Aminophenyl)-1-phenyl-1H-pyrazol-4-yl)methylene)-2-thioxoimidazolidin-4-one]
[1]
  IC50: 56.62 ± 0.16 µM
[2]
  IC50: 47.31 ± 0.18 µM
  Selective Index Wi38/Lncap: 1.2
[3]
  IC50: 26.8 ± 0.39 µM
  Selective Index Wi38/PC-3: 2.1
other
  melting point: 195 to 197 °C

## O=C1NC(=S)NC1=Cc1cn(-c2ccc(F)cc2)nc1-c1ccc(F)cc1 [Compound 3h, 5-((1,3-Bis(4-fluorophenyl)-1H-pyrazol-4-yl)methylene)-2-thioxoimidazolidin-4-one]
[1]
  IC50: 20.96 ± 0.13 µM
[2]
  IC50: 19.48 ± 0.05 µM
  Selective Index Wi38/Lncap: 1.0
[3]
  IC50: 18.8 ± 0.14 µM
  Selective Index Wi38/PC-3: 1.0
other
  melting point: 178 to 179 °C

## O=C1NC(=S)NC1=Cc1cn(-c2ccc(F)cc2)nc1-c1ccc(Br)cc1 [Compound 3j, 5-((3-(4-Bromophenyl)-1-(4-fluorophenyl)-1H-pyrazol-4-yl)methylene)-2-thioxoimidazolidin-4-one]
[4]
  CC50: 21.08 ± 0.06 µM
[5]; Homo sapiens
  IC50: 7.72 ± 0.15 µM
[5]; IC50 PC-3 / IC50 LNCaP
  Selectivity AR-/AR+: 1.8
[6]
  IC50: 14.2 ± 0.15 µM
[1]
  IC50: 31.18 ± 0.16 µM
[2]
  IC50: 13.9 ± 0.14 µM
  Selective Index Wi38/Lncap: 2.2
[3]
  IC50: 24.44 ± 0.12 µM
  Selective Index Wi38/PC-3: 1.5
[7]; IC50 concentration, 1 nM DHT, AR+LNCaP lysate
  active Caspase 3 fold change compared to untreated cells: 4.2 fold
[7]; IC50 concentration, AR+LNCaP
  induction of active caspase 3 as a percentage of the reference drug Enzalutamide: 63.0%
[7]
  Caspase 3 fld: 4.115
  Caspase 3: 316.5 pg/mL
  Caspase 3 Conc. (Average): 316.5
other
  melting point: 199 to 201 °C

## O=C1NC(=S)NC1=Cc1cn(-c2ccc(F)cc2)nc1-c1ccccc1 [Compound 3l, 5-((1-(4-Fluorophenyl)-3-phenyl-1H-pyrazol-4-yl)methylene)-2-thioxoimidazolidin-4-one]
[1]
  IC50: 26.81 ± 0.06 µM
[2]
  IC50: 20.8 ± 0.04 µM
  Selective Index Wi38/Lncap: 1.3
[3]
  IC50: 15.3 ± 0.04 µM
  Selective Index Wi38/PC-3: 1.8
other
  melting point: 189 to 191 °C

## COc1ccc(-c2nn(-c3ccc(F)cc3)cc2C=C2NC(=S)NC2=O)cc1 [Compound 3n, 5-((1-(4-Fluorophenyl)-3-(4-methoxyphenyl)-1H-pyrazol-4-yl)methylene)-2-thioxoimidazolidin-4-one]
[1]
  IC50: 26.93 ± 0.09 µM
[2]
  IC50: 15.02 ± 0.15 µM
  Selective Index Wi38/Lncap: 1.8
[3]
  IC50: 23.25 ± 0.08 µM
  Selective Index Wi38/PC-3: 1.2
other
  melting point: 179 to 181 °C

## COc1cccc2c1C(=O)c1c(O)c3c(c(O)c1C2=O)C[C@@](O)(C(=O)CO)C[C@@H]3O[C@H]1C[C@H](N)[C@H](O)[C@H](C)O1 [Doxorubicin, reference compound]
[1]
  IC50: 15.14 ± 0.12 µM
[2]
  IC50: 11.4 ± 0.16 µM
  Selective Index Wi38/Lncap: 1.3
[3]
  IC50: 10 ± 0.18 µM
  Selective Index Wi38/PC-3: 1.5

## CNC(=O)c1ccc(N2C(=S)N(c3ccc(C#N)c(C(F)(F)F)c3)C(=O)C2(C)C)cc1F [Enzalutamide, reference compound]
[8]
  Early Apoptosis (%): 9.46%
  Late Apoptosis (%): 21.27%
  Necrotic Cells (%): 3.13%
  Total Apoptosis (%): 33.86%
[9]
  DNA Content (%) G0–G1: 61.02%
  DNA Content (%) G2/M: 25.37%
[7]
  Caspase 3 fld: 6.923
  Caspase 3: 532.4 pg/mL
  Caspase 3 Conc. (Average): 532.4
